In test [1] the target is T1, Nitric oxide synthase (neuronal, human recombinant) nNOS (Homo sapiens, UniProt P29475).
T1 construct: purchased Axxora LLC ALX-201-068
Nature of the test: nNOS (human) enzyme assay, [3H]-L-arginine to L-citrulline. The format is biochemical. The conditions noted are these: for IC50: Table 15.
Experimental: nNOS (Human), eNOS (Human) Enzyme Assay
Human nNOS and eNOS Protocol:
Procedure for Human nNOS and eNOS
Primary stock solutions of test compounds at a concentration of 6 mM are prepared. The primary stock solutions of each test compound are prepared freshly in distilled water on the day of study. […] Concentration range of test compound utilized for nNOS are 0.001 to 300 μM and for eNOS are 0.003 to 1000 μM. The vehicle of the test compound or inhibitor is used as blank control.
(§2) All incubations are performed in duplicate:
(§3) Prepare the reaction mixture on ice by adding the following components with a micropipette to a polypropylene microcentrifuge tube:
Total reaction volume is 60 μL.
(§4) Mix using a vortex mixer and incubate the above reaction mixture at 37° C. in an incubator for 30 minutes.
(§5) Add 400 μL of ice-cold Stop Buffer at the end of the incubation period to stop the reaction. (The EDTA in the Stop Buffer chelates all of the available calcium.)
(§6) Mix using a vortex mixer and transfer the reaction samples to spin cups and centrifuge using a microcentrifuge, at 13,000 rpm for 30 sec. at room temperature.
(§7) Remove the spin cups from the holder and transfer 450 μL of eluate (containing the unbound L-citrulline) to scintillation vials. Add 3 mL of scintillation fluid and quantify the radioactivity in a liquid scintillation counter.
Calculation of IC50 Values:
(§8) Data is analyzed using a Sigmoidal dose-response (variable slope) curve to determine the IC50 value of the test compound. Y=Bottom+(Top−Bottom)/(1+10^((Log IC50−X)*Hill Slope))

In test [2] the target is T2, Nitric oxide synthase (endothelial, human recombinant) eNOS (Homo sapiens, UniProt P29474).
T2 construct: purchased Axxora LLC ALX-201-070
The test is described as follows: eNOS (human) enzyme assay, [3H]-L-arginine to L-citrulline. It is filed as biochemical. The conditions noted are these: for IC50: Table 15, read-out: IC50 in μM (Human eNOS).
Experimental: Human nNOS and eNOS Protocol:
Procedure for Human nNOS and eNOS
Primary stock solutions of test compounds at a concentration of 6 mM are prepared. The primary stock solutions of each test compound are prepared freshly in distilled water on the day of study. […] Concentration range of test compound utilized for nNOS are 0.001 to 300 μM and for eNOS are 0.003 to 1000 μM. The vehicle of the test compound or inhibitor is used as blank control. […] The IC50 concentration of L-NAME was run in parallel as a control.
as §2, §3
Start the reaction by addition of the substrate (in 5 µL containing 1 μCi of [^3H]-L-Arginine+2.5 μM of unlabeled L-Arginine) to the reaction mixture. Total reaction volume is 60 μL.
as §4, §5, §6, §7
Calculation of IC50 Values:
as §8

Test [3] has as its target Recombinant human inducible NOS (iNOS) (Homo sapiens, UniProt P35228). The test is described as follows: Human iNOS assay, radiometric. It is filed as biochemical. Particulars: Table 10, human iNOS; read-out: iNOSh. How it is done: Recombinant human inducible NOS (iNOS) was produced in Baculovirus-infected Sf9 cells (ALEXIS). […] 15 μL of test substances are added to the mixture with the specific enzyme and pre-incubated at RT for 15 min. • 2. […] The incubation is carried out at 37° C. for 45 min. • 4. […] An aliquot 70 μL of the supernatant is added to 100 μL scintillation fluid. • 8.
The total volume of the reaction mixture is 150 μL in every well. All assays are performed at least in duplicate. Standard deviations are 10% or less.

For test [4], the target named is 5-HT1D (Bos taurus, UniProt F1MMU1). Nature of the test: 5-HT1D binding assay (agonist radioligand), bovine caudate membranes. How it is done: (§1) 5-HT1D binding assays (agonist radioligand) were performed using bovine caudate membranes according to the methods of Heuring and Peroutka (J. Neurosci., 7: 894-903 (1987)). 5-HT1B (rat cerebral cortex) binding assays (agonist radioligand) were performed according to the method of Hoyer et. al. (Eur. J. Pharmacol., 118: 1-12 (1995)). For the purpose of result analysis, the specific ligand binding to the receptors is defined as the difference between the total binding and the nonspecific binding as determined in the presence of an excess of unlabelled ligand. The results are expressed as a percent of control specific binding obtained in the presence of the test compounds.

Test [5] addresses T3, 5-HT1B (Rattus norvegicus, UniProt P28564).
T3 construct: from tissue; host or cells: rat cerebral cortex
Nature of the test: 5-HT1B binding assay (agonist radioligand), rat cerebral cortex. How it is done:
as §1, with “compounds. IC50 values (concentration causing a half-maximal inhibition of control specific binding) and Hill coefficients (nH) were determined by non-linear regression analysis of the competition curves using Hill equation curve fitting and the inhibition constants (Ki) were calculated from the Cheng Prusoff equation (Ki=IC50/(1+(L/KD)), where L=concentration of radioligand in the assay, and KD=affinity of the radioligand for the receptor).” for “compounds.”

For test [6], the system named is rats with experimental pancreatitis. Nature of the test: Pancreatitis visceral pain model (DBTC), referred abdominal hypersensitivity, von Frey. The format is in vivo, rat. The procedure: Adult male Sprague Dawley rats (Harlan, Indianapolis, Ind.), weighing 150-200 g were maintained in a climate-controlled room with ad lib food and water on a 12-h light/dark cycle (lights on at 07:00 hours). All procedures followed the policies of the International Association for the Study of Pain and the NIH guidelines for the handling and use of laboratory animals. Studies were approved by the University of Arizona IACUC.
Pancreatitis was produced by a tail vein injection of dibutyltin dichloride (DBTC, Aldrich, Milwaukee, Wis., 0.25 cc) dissolved in 100% ethanol at a dose of 8 mg/kg under isofluorane anesthesia (2-3 liters/min, 4.0%/vol until anesthetized, then 2.5%/vol throughout the procedure) (Vera-Portocarrero et al., 2006). Control animals were injected with the vehicle solution only (100% ethanol, 0.25 cc).
Referred abdominal hypersensitivity in the pancreatitis model was quantified by measuring the number of withdrawals events evoked by application of a calibrated von Frey filament (determined by either abdominal withdrawal, licking of the abdominal area, or whole body withdrawal). Rats were placed inside Plexiglas boxes on an elevated fine fiberglass screen mesh and acclimated for 30 minutes before testing. A 4 g von Frey filament was applied from underneath through the mesh floor, to the abdominal area at different points on the surface. […] The mean occurrence of withdrawal events in each trial is expressed as the number of responses to 10 applications as previously described (Vera-Portocarrero et al., 2003).
Significant differences between each experimental group for the behavioral test across time were detected by a two-factor ANOVA follow by the Fishers Least Significance Difference post-hoc test. One-factor ANOVA was used to detect significant differences in behavioral outcomes within each experimental group over time. A linear regression analysis was used to detect the dose-dependency of the effects. Significance was established at the p<0.05 level.

Where [7] appears, read: Table 11, bovine 1D receptor binding, read-out: 5HT1D.

pIC50: −log10 of the molar value. Where a name gives a salt, the structure may show the parent alone. Read-outs that look alike come from different tables or passages of the source.

T1 sequence (P29475 whole entry): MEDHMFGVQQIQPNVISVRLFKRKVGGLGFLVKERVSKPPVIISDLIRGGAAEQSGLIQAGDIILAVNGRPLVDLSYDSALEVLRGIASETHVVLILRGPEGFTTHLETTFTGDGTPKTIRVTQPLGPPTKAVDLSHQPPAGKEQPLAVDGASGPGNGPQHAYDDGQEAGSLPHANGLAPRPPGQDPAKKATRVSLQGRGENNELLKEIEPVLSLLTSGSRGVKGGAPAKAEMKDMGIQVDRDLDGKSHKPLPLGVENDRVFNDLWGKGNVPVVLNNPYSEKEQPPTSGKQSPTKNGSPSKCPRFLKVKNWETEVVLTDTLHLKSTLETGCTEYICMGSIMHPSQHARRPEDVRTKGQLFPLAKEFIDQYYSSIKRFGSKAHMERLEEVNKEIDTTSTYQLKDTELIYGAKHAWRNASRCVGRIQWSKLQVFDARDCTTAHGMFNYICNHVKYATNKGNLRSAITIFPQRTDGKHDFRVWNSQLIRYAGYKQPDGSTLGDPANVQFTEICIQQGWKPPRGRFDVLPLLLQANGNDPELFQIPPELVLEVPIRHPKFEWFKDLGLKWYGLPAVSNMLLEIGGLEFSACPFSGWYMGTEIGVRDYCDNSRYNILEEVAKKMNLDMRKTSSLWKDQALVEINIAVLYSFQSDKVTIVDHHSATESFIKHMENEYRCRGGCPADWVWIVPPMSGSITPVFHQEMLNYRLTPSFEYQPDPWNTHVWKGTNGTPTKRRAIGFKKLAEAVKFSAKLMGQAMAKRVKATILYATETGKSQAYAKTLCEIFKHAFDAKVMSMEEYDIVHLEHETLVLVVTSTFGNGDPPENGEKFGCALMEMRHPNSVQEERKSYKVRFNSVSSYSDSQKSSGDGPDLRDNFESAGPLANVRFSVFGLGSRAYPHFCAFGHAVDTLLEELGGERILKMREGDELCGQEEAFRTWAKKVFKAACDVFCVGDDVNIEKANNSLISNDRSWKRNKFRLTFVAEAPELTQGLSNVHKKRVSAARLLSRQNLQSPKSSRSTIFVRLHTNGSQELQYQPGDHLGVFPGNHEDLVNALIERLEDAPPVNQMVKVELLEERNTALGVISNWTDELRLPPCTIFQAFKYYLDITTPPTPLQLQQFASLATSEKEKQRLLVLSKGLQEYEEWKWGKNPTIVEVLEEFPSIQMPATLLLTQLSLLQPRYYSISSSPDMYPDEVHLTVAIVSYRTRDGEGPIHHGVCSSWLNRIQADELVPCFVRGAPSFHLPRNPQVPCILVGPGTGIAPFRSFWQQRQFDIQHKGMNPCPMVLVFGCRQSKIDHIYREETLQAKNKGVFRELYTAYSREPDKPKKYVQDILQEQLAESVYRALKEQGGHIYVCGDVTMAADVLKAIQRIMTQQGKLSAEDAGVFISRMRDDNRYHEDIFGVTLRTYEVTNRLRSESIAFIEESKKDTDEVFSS
T2 sequence (P29474 whole entry): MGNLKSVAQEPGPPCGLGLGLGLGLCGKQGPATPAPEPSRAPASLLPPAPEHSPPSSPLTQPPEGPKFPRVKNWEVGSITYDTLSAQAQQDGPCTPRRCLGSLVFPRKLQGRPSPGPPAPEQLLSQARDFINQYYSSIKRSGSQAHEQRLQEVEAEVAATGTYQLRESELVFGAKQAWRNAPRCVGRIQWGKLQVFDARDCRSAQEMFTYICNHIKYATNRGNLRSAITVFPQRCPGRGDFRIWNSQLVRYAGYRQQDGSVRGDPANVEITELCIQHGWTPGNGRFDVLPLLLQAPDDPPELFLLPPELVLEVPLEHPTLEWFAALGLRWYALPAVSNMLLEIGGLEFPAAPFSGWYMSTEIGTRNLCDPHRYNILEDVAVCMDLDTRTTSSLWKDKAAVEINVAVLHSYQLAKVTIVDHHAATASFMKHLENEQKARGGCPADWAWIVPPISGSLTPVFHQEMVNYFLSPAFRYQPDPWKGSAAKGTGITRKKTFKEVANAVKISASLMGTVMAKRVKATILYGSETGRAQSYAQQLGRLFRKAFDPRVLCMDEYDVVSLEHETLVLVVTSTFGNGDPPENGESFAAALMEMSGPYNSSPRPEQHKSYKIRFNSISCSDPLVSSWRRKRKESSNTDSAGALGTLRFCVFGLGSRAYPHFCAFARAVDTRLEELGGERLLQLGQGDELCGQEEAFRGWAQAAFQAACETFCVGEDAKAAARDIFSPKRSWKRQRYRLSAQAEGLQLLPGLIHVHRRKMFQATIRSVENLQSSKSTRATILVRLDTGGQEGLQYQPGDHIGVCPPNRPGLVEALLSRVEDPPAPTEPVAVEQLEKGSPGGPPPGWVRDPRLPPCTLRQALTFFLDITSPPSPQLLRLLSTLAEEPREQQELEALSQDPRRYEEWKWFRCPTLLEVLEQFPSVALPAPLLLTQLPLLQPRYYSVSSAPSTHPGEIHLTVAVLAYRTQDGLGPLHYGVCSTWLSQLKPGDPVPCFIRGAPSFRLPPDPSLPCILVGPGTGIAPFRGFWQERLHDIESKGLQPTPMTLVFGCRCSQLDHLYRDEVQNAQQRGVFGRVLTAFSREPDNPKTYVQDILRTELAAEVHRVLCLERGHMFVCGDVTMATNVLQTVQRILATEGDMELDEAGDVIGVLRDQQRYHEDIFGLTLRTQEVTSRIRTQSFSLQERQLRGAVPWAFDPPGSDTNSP
T3 sequence (P28564 whole entry): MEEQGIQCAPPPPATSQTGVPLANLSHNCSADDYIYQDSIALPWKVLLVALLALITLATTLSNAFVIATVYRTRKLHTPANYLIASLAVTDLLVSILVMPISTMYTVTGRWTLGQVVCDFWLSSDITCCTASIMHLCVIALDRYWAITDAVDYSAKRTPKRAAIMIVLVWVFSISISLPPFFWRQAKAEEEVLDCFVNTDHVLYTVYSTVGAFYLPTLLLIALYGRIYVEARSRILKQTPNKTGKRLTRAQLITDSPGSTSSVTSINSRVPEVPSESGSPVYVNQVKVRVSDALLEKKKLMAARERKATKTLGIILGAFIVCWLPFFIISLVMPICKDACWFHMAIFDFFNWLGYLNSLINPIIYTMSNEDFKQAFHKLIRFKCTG
Sequence of 5-HT1D (F1MMU1 1-377): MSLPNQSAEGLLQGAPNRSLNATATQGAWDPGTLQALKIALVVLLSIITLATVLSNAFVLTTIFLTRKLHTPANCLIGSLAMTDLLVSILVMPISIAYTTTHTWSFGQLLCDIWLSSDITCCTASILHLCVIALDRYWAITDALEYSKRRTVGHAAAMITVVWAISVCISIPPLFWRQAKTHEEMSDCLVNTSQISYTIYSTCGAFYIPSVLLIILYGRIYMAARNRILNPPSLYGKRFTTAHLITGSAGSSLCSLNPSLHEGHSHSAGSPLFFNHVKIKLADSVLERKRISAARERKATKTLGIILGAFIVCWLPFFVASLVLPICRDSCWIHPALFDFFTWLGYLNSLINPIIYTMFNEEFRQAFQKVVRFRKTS

For the molecule `CCNC1CCC(c2c[nH]c3ccc(NC(=N)c4cccs4)cc23)C1` (mixture of isomers) [Compound 26, N-(3-(3-(ethylamino)cyclopentyl)-1H-indol-5-yl)thiophene-2-carboximidamide], the eNOS/nNOS in test [1] (Table 15, selectivity ratio) came to 55.6.

For `CN1CCC(c2c[nH]c3ccc(NC(=N)c4cccs4)cc23)C1` (racemic) [Compound 6, N-(3-(1-methylpyrrolidin-3-yl)-1H-indol-5-yl)thiophene-2-carboximidamide], the pIC50 is 6.40 in test [1] (Table 10, human nNOS, read-out: nNOSh); 4.41 in test [2] (Table 10, human eNOS, read-out: eNOSh); 4.46 in test [3]; 6.72 in test [4] (setting [7]); 6.07 in test [5] (Table 11, rat 1B receptor binding). The e/n in test [1] (Table 10, ratio eNOS/nNOS) was 97.

Turning to `CNC1CCCC(c2c[nH]c3ccc(NC(=N)c4cccs4)cc23)C1` (racemic) [Compound (±)-20, N-(3-((1S,3R)-3-(Methylamino)cyclohexyl)-1H-indol-5-yl)thiophene-2-carboximidamide], the pIC50 in test [4] (read-out: 5HT 1D, Table 14) was 5.55; in test [5] (Table 14, read-out: 5HT 1B), 4.70.

For `CNC1CCCC(c2c[nH]c3ccc(NC(=N)c4cccs4)cc23)C1` (single isomer, unassigned) [Compound 20a, N-(3-(3-(methylamino)cyclohexyl)-1H-indol-5-yl)thiophene-2-carboximidamide dihydrochloride], the pIC50 in test [2] (Table 14, read-out: Human eNOS) is 4.31; in test [4] (read-out: 5HT 1D, Table 14, listed as 20a (isomer-1), dihydrochloride) it was 5.49; in test [5] (Table 14, read-out: 5HT 1B) it was 5.89.

Turning to `CNC1CCCC(c2c[nH]c3ccc(NC(=N)c4cccs4)cc23)C1` (single isomer, unassigned) [Compound 20b, N-(3-(3-(methylamino)cyclohexyl)-1H-indol-5-yl)thiophene-2-carboximidamide dihydrochloride], the pIC50 is 4.12 in test [2] (Table 14, read-out: Human eNOS); 5.85 in test [4] (read-out: 5HT 1D, Table 14, listed as 20b (isomer-2), dihydrochloride); 4.92 in test [5] (Table 14, read-out: 5HT 1B).

As for `CCN1CC=C(c2c[nH]c3ccc(NC(=N)c4cccs4)cc23)CC1` [Compound 19, N-(3-(1-ethyl-1,2,3,6-tetrahydropyridin-4-yl)-1H-indol-5-yl)thiophene-2-carboximidamide], the eNOS/nNOS in test [1] (Table 13, selectivity ratio) came out at 92.4. The pIC50 in test [1] (Table 13, read-out: Human nNOS) is 6.13; in test [2] (Table 13, read-out: Human eNOS), 4.16.

Turning to `N=C(Nc1ccc2[nH]cc(C3=CCN(CCO)CC3)c2c1)c1cccs1` [Compound 24, N-(3-(1-(2-hydroxyethyl)-1,2,3,6-tetrahydropyridin-4-yl)-1H-indol-5-yl)thiophene-2-carboximidamide], the eNOS/nNOS in test [1] (Table 15, selectivity ratio) was found to be 99. Besides, the IC50 (commonly the point on the concentration scale where inhibition reaches its midpoint) in test [1] (read-out: IC50 in μM (Human nNOS)) was 0.748 µM; in test [2], 74.1 µM.

As for `N=C(Nc1ccc2[nH]cc(CCN3CCCC3)c2c1)c1cccs1` [Compound 25, N-(3-(2-(pyrrolidin-1-yl)ethyl)-1H-indol-5-yl)thiophene-2-carboximidamide], the concentration for half-maximal inhibition (IC50) in test [1] (IC50 in μM (Human nNOS)) stood at 0.427 µM; in test [2] it was 9.92 µM. The eNOS/nNOS in test [1] (Table 15, selectivity ratio) was 23.2.

On to `CN1CCC[C@@H]1Cc1c[nH]c2ccc(NC(=N)c3cccs3)cc12` [Compound 27, (R)—N-(3-((1-Methylpyrrolidin-2-yl)methyl)-1H-indol-5-yl)thiophene-2-carboximidamide], for which the “reversal of tactile allodynia in pancreatitis visceral pain model” value in test [6] was “reverts the tactile allodynia”.

Take `CNS(=O)(=O)Cc1ccc2[nH]cc(CCN(C)C)c2c1` [Sumatriptan, reference compound]: the pIC50 in test [4] (setting [7]) was 7.23.
